From publication doi:10.1101/2024.09.25.614871v2, “CLYBL averts methylmalonyl-CoA mutase inhibition and loss of vitamin B12 by repairing malyl-CoA” (biorxiv, 2024) come the findings set out here.

The term Km denotes the substrate concentration at which the rate is half of its maximum.

The target in one assay is T1, citrate synthase (CS) (Sus scrofa, UniProt P00889).
T1 construct: commercial native enzyme from porcine heart
T1 sequence (P00889 28-464): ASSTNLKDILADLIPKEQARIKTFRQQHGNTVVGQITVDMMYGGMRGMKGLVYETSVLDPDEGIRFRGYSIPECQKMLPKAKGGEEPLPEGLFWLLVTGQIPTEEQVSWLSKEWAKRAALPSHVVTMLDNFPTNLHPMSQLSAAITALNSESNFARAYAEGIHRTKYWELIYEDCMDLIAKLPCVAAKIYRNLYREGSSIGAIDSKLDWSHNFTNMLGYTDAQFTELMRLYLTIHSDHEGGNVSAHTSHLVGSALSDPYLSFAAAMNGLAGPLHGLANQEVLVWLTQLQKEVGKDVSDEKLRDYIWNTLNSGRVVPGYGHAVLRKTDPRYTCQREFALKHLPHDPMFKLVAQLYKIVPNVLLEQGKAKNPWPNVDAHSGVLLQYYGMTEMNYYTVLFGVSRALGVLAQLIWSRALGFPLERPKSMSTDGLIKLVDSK
Description: Ellman's reagent at […] nm, inhibition of malyl-CoA thioesterase. It counts as biochemical. The conditions noted are these: read-out: % inhibition at highest concentration (100 μM). Background: DTNB colorimetry detects thiols as they appear.

Assay [1] deals with T2, methylmalonyl-CoA mutase (MCM) (Homo sapiens, UniProt P22033).
T2 construct: gene MMUT
T2 sequence (P22033 34-750): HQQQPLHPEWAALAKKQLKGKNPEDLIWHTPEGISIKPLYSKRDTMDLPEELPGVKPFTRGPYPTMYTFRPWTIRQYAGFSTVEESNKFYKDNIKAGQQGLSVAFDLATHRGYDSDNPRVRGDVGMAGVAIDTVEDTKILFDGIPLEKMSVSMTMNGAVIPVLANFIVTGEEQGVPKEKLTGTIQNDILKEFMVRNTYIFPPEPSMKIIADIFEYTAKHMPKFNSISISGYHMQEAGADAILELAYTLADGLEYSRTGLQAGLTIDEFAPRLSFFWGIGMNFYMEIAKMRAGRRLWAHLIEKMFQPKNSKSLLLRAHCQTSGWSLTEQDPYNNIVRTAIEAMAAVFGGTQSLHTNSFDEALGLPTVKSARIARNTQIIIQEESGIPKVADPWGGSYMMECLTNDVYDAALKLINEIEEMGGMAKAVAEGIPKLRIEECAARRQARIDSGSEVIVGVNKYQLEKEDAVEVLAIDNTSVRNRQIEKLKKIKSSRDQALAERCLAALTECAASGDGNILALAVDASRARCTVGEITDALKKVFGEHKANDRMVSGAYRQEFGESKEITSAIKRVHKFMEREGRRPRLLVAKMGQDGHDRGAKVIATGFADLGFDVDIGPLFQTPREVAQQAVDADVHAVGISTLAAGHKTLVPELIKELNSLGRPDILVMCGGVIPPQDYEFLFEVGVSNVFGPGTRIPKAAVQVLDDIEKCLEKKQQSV
Description: absorbance spectrum of loaded enzyme. The format is binding. The settings on record: 12.5 μM MCM homodimer, 5 μM adenosylcobalamin, pH 7.5, 30 °C.

In assay [2] the target is T2, methylmalonyl-CoA mutase (MCM). Description: succinyl-CoA formation by LC-HRMS/MS. The format is biochemical. The settings on record: 10 min preincubation, 0.24 μM adenosylcobalamin, 65 μM methylmalonyl-CoA, pH 7.5, 30 °C; coenzyme inactivation to cob(II)alamin; itaconyl-CoA 27% pure, concentrations corrected.
Another assay addresses T3, CLYBL (Homo sapiens, UniProt Q8N0X4, I241V).
T3 construct: full-length ORF (340 aa precursor), natural variant Ile241Val, C-terminal Myc-DKK (FLAG) tag, expressed in HEK293FT, anti-FLAG purified
T3 sequence (Q8N0X4 23-340 I241V): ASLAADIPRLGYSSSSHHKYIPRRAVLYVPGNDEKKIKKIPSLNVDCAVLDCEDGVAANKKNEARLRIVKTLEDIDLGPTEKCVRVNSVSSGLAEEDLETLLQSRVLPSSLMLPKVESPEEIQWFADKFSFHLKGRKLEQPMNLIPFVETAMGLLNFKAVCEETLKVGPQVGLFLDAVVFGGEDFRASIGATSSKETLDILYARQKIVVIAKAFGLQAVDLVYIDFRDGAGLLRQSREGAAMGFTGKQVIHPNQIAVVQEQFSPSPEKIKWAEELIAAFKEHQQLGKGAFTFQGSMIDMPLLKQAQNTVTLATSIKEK
Description: Ellman's reagent at […] nm (thioesterase). It counts as biochemical. The conditions noted are these: pH 7.5, 37 °C, 2 mM MgCl2.

The target in assay [3] is T2, methylmalonyl-CoA mutase (MCM). Description: succinyl-CoA formation by LC-HRMS/MS. It counts as biochemical. The settings on record: read-out: % residual activity at 50 μM.
The target of assay [4] is T4, SUCL (GDP-forming), SUCLG1:SUCLG2 complex (Homo sapiens, UniProt P53597+Q96I99).
T4 construct: SUCLG1 aa 28-333 with N-terminal His6, SUCLG2 aa 38-420 with C-terminal His6, co-expressed in E. coli, tags kept
T4 sequence (P53597 28-333): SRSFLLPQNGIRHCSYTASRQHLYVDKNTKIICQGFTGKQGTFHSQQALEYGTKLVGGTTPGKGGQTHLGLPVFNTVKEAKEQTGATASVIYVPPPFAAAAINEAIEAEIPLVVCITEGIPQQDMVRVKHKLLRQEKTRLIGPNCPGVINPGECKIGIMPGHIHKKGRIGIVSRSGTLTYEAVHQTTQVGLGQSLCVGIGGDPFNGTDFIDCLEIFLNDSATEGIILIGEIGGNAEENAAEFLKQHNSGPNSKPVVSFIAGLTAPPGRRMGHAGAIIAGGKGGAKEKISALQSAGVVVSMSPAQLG
T4 sequence (Q96I99 38-420): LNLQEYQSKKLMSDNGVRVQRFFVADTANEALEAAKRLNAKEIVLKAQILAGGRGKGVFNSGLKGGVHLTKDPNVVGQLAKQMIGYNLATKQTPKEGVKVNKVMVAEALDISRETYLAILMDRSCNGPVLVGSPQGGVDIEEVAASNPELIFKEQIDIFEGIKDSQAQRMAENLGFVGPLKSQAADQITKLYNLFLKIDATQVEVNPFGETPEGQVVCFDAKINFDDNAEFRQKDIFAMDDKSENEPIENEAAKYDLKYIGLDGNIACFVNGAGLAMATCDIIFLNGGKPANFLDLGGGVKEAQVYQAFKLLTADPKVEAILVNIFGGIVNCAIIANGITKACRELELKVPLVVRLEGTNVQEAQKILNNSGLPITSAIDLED
Description: PK/LDH-coupled NADH consumption. It counts as biochemical. The settings on record: 0.6 mM GTP, 0.1 mM CoA, 7 mM MgCl2, pH 7.5, 30 °C. An excerpt:
PK/LDH-coupled NADH consumption on SUCL (GDP-forming), SUCLG1:SUCLG2 complex

Assay [5] has as its target T5, SUCL (ADP-forming), SUCLG1:SUCLA2 complex (Homo sapiens, UniProt P53597+Q9P2R7).
T5 construct: SUCLG1 aa 28-333 with N-terminal His6, SUCLA2 aa 53-463 with C-terminal His6, co-expressed in E. coli, tags kept
Briefly: PK/LDH-coupled NADH consumption. The conditions noted are these: 0.6 mM ATP, 0.1 mM CoA, 7 mM MgCl2, pH 7.5, 30 °C. The format is biochemical. An excerpt:
PK/LDH-coupled NADH consumption on SUCL (ADP-forming), SUCLG1:SUCLA2 complex

T5 sequence (P53597 28-333): as the sequence (P53597 28-333) above
T5 sequence (Q9P2R7 53-463): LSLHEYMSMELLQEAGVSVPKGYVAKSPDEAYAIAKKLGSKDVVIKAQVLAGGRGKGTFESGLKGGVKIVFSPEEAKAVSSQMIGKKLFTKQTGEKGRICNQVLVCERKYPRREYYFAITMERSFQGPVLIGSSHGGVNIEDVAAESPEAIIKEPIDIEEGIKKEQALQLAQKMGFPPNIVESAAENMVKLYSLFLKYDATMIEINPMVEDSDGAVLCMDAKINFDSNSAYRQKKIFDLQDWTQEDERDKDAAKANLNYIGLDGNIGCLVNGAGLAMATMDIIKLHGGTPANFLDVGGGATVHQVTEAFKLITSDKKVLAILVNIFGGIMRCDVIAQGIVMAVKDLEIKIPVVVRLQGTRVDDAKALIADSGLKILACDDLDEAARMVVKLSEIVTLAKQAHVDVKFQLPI

`CC(=O)SCCNC(=O)CCNC(=O)[C@H](O)C(C)(C)COP(=O)(O)OP(=O)(O)OC[C@H]1O[C@@H](n2cnc3c(N)ncnc32)[C@H](O)[C@@H]1OP(=O)(O)O` [ACoA, acetyl-CoA]: the inhibition at 100 µM on citrate synthase (CS) is around 30%.
For the molecule `C/C1=C2/[N-][C@H]([C@H](CC(N)=O)[C@@]2(C)CCC(=O)NC[C@@H](C)OP(=O)([O-])O[C@H]2C(O)[C@@H](n3cnc4cc(C)c(C)cc43)O[C@@H]2CO)[C@]2(C)N=C(/C(C)=C3N=C(/C=C4N=C1[C@@H](CCC(N)=O)C\4(C)C)[C@@H](CCC(N)=O)[C@]\3(C)CC(N)=O)[C@@H](CCC(N)=O)[C@]2(C)CC(N)=O.[CH2-][C@H]1O[C@@H](n2cnc3c(N)ncnc32)[C@H](O)[C@@H]1O.[Co+3]` (stereo partly shown) [AdoCbl, adenosylcobalamin], the “absorbance spectrum of loaded enzyme” value in assay [1] was “conversion of the MCM-bound adenosylcobalamin into cob(II)alamin”.
Regarding `C=C(CC(=O)SCCNC(=O)CCNC(=O)[C@H](O)C(C)(C)COP(=O)(O)OP(=O)(O)OC[C@H]1O[C@@H](n2cnc3c(N)ncnc32)[C@H](O)[C@@H]1OP(=O)(O)O)C(=O)O` [itaconyl-CoA], the relative activity entry in assay [2] is listed as “Both acyl-CoAs induced a dose-dependent inhibition of MCM (Fig. 5a)”.
`CC(C)(COP(=O)(O)OP(=O)(O)OC[C@H]1O[C@@H](n2cnc3c(N)ncnc32)[C@H](O)[C@@H]1OP(=O)(O)O)[C@@H](O)C(=O)NCCC(=O)NCCSC(=O)C[C@H](O)C(=O)O` [malyl-CoA]: the KM entry at CLYBL was “CLYBL actively hydrolyzed malyl-CoA into malate and free CoASH”. In addition, the remaining activity at 50 µM in assay [3] was below 10%.
Take `O=C(O)CCC(=O)O` [succinate]: the Michaelis-Menten constant (Km) in assay [4] was 0.25 ± 0.03 mM; in assay [5], 6.3 ± 1.9 mM.
